From ChEMBL document CHEMBL1134087, “Inhibitors of the bacterial cell wall biosynthesis enzyme MurC” (Bioorg Med Chem Lett, 2001)

Key:
[1] = Tested for inhibitory activity against UDP-N-acetylmuramoyl-L-alanine synthetase from Escherichia coli by malachite green assay
[2] = Tested for inhibitory activity against UDP-N-acetylmuramoyl-L-alanine synthetase from Escherichia coli by malachite green assay; Inactive

| SMILES | IC50 [1] [µM] | IC50 [2] |
| --- | --- | --- |
| CC(=O)N[C@H]1C(OP(=O)(O)OP(=O)(O)OC[C@H]2O[C@@H](n3ccc(=O)[nH]c3=O)[C@H](O)[C@@H]2O)O[C@H](CO)[C@@H](O)[C@@H]1OCP(=O)(O)CC(C)C(=O)O (some centres undefined) | 0.049 |  |
| CC(CP(=O)(O)COCCCOP(=O)(O)OP(=O)(O)OC[C@H]1O[C@@H](n2ccc(=O)[nH]c2=O)[C@H](O)[C@@H]1O)C(=O)O (some centres undefined) | 60 |  |
| CC(=O)N[C@H]1[C@@H](OP(=O)(O)O)O[C@H](CO)[C@@H](O)[C@@H]1OCP(=O)(O)CC(C)C(=O)O (some centres undefined) | > 100 |  |
| CC(CP(=O)(O)COCCCOP(=O)(O)O)C(=O)O (centres undefined) |  | Not Active |
